The results in this text go back to patent publication US8580825B2, “Oxadiazole inhibitors of leukotriene production” (Boehringer Ingelheim International GmbH, priority 2010, dated 2013).

Test [1] relates to synthesis of LTB4 in human whole blood. The experiment in a line: human whole blood LTB4 production inhibition assay. The class given is cell-based. The settings on record: calcimycin stimulated, read-out: hWB LTB4 IC50. An outline of the steps: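 LTB4 in plasma was quantified by HTRF immunoassay. Before that, compound-treated heparinized whole blood (15 min, 37 °C) received 20 μM final calcimycin for a further 30 min at 37 °C, followed by centrifugation at 1500×g.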

The target in test [2] is T1, recombinant human FLAP protein (Homo sapiens, UniProt P20292).
T1 construct: made in house; host or cells: Sf9 insect cells (100,000xg membrane fraction used)
T1 sequence (P20292 1-161): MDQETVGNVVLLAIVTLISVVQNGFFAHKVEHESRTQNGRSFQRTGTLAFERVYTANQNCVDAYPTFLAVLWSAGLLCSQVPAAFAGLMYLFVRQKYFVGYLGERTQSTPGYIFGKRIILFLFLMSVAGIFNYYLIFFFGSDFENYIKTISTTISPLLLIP
The experiment in a line: FLAP binding assay (Scintillation Proximity Assay, displacement of [125I]L-691,831). Particulars: for IC50: read-out: FLAP SPA IC50. The gist of the method: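 Scintillation proximity displacement of [125I]L-691,831 (0.08 nM) from membranes of sf9 cells expressing recombinant human FLAP (5 μg/well) on WGA SPA beads, pH 7.5 Tris buffer. Plates shaken 2 h before counting. Non-specific binding defined with 10 μM unlabelled L-691,831.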
In general terms: Scintillation proximity formats need no separation of bound from free tracer.

For orientation: IC50 means the concentration that gives 50% inhibition. With `C[C@](c1ccc(-c2cnc(N)nc2)nc1)(c1noc(-c2cnn(C3COC3)c2)n1)C1CC1` [Example 79, 5-{5-[(1S)-1-cyclopropyl-1-{5-[1-(oxetan-3-yl)-1H-pyrazol-4-yl]-1,2,4-oxadiazol-3-yl}ethyl]pyridin-2-yl}pyrimidin-2-amine], the IC50 in test [1] was determined as 650 nM; in test [2] it was 140 nM.
Taken in the same sequence, the figures for `CNC(=O)Cn1cc(-c2nc(C(C)(c3ccc(-c4cnc(N)nc4)nc3)C(C)C)no2)cn1` (centres unmarked) [Example 80, 2-[4-(3-{2-[6-(2-aminopyrimidin-5-yl)pyridin-3-yl]-3-methylbutan-2-yl}-1,2,4-oxadiazol-5-yl)-1H-pyrazol-1-yl]-N-methylacetamide] were 230 nM and 5.6 nM.
Taken in the same sequence, the figures for `CN(C)C(=O)Cn1cc(-c2nc([C@@](C)(c3ccc(-c4cnc(N)nc4)nc3)C3CC3)no2)cn1` [Example 83, 2-[4-(3-{(1R)-1-[6-(2-aminopyrimidin-5-yl)pyridin-3-yl]-1-cyclopropylethyl}-1,2,4-oxadiazol-5-yl)-1H-pyrazol-1-yl]-N,N-dimethylacetamide] were 200 nM and 76 nM.
The inhibition is the percentage by which the read-out fell short of the control. Consider `CN(C)C(=O)Cn1cc(-c2nc([C@](C)(c3ccc(-c4cnc(N)nc4)nc3)C3CC3)no2)cn1` [Example 84, 2-[4-(3-{(1S)-1-[6-(2-aminopyrimidin-5-yl)pyridin-3-yl]-1-cyclopropylethyl}-1,2,4-oxadiazol-5-yl)-1H-pyrazol-1-yl]-N,N-dimethylacetamide], for which the IC50 in test [1] amounted to 2900 nM. Besides, the inhibition at 1 µM in test [2] (read-out: FLAP SPA inhibition at 1 uM) amounted to 45%.
Consider `CC(C)C(C)(c1ccc(-c2cnc(N)nc2)nc1)c1noc(-c2cn(CC(C)(C)O)cn2)n1` (centres unmarked) [Example 85, 1-[4-(3-{2-[6-(2-aminopyrimidin-5-yl)pyridin-3-yl]-3-methylbutan-2-yl}-1,2,4-oxadiazol-5-yl)-1H-imidazol-1-yl]-2-methylpropan-2-ol], for which the IC50 in test [1] came to 1900 nM; in test [2] it was 350 nM.
`Cn1cc(-c2nc(C(C)(C)c3ccc(-c4cnc(N)nc4)nc3)no2)cn1` [Example 86, 5-(5-{2-[5-(1-methyl-1H-pyrazol-4-yl)-1,2,4-oxadiazol-3-yl]propan-2-yl}pyridin-2-yl)pyrimidin-2-amine]: the figures for the half-maximal inhibitory concentration (IC50) in test [1] and in test [2] were 790 nM and 140 nM, respectively.
Take `CC(C)(c1ccc(-c2cnc(N)nc2)nc1)c1noc(-c2cn[nH]c2)n1` [Example 87, 5-(5-{2-[5-(1H-pyrazol-4-yl)-1,2,4-oxadiazol-3-yl]propan-2-yl}pyridin-2-yl)pyrimidin-2-amine]: the IC50 is over 5000 nM in test [1] and 670 nM in test [2].
Taken in the same sequence, the figures for `CC(C)(O)Cn1cc(-c2nc(C(C)(C)c3ccc(-c4cnc(N)nc4)nc3)no2)cn1` [Example 88, 1-[4-(3-{2-[6-(2-aminopyrimidin-5-yl)pyridin-3-yl]propan-2-yl}-1,2,4-oxadiazol-5-yl)-1H-pyrazol-1-yl]-2-methylpropan-2-ol] were 1500 nM and 370 nM.
Turning to `COCCn1cc(-c2nc(C(C)(C)c3ccc(-c4cnc(N)nc4)nc3)no2)cn1` [Example 89, 5-[5-(2-{5-[1-(2-methoxyethyl)-1H-pyrazol-4-yl]-1,2,4-oxadiazol-3-yl}propan-2-yl)pyridin-2-yl]pyrimidin-2-amine], the IC50 was found to be 880 nM in test [1] and 230 nM in test [2].
Taken in the same sequence, the figures for `COC(=O)C(C)(C)n1cc(-c2nc(C(C)(C)c3ccc(-c4cnc(N)nc4)nc3)no2)cn1` [Example 90, methyl 2-[4-(3-{2-[6-(2-aminopyrimidin-5-yl)pyridin-3-yl]propan-2-yl}-1,2,4-oxadiazol-5-yl)-1H-pyrazol-1-yl]-2-methylpropanoate] were 950 nM and 140 nM.
Taken in the same sequence, the figures for `COCCOCCn1cc(-c2nc(C(C)(C)c3ccc(-c4cnc(N)nc4)nc3)no2)cn1` [Example 91, 5-{5-[2-(5-{1-[2-(2-methoxyethoxy)ethyl]-1H-pyrazol-4-yl}-1,2,4-oxadiazol-3-yl)propan-2-yl]pyridin-2-yl}pyrimidin-2-amine] were 1500 nM and 300 nM.
Taken in the same sequence, the figures for `CC(C)Nc1cnc(-c2nc([C@@](C)(c3ccc(-c4cnc(N)nc4)nc3)C(C)C)no2)cn1` [Example 92, 5-[5-{(R)-1-[5-(5-Isopropylamino-pyrazin-2-yl)-[1,2,4]oxadiazol-3-yl]-1,2-dimethyl-propyl}-pridin-2-yl)-pyrimidin-2-ylamine] were 92 nM and 15 nM.
`CC(C)Nc1cnc(-c2nc([C@](C)(c3ccc(-c4cnc(N)nc4)nc3)C(C)C)no2)cn1` [Example 93, 5-(5-{(S)-1-[5-(5-Isopropylamino-pyrazin-2-yl)-[1,2,4]oxadiazol-3-yl]-1,2-dimethyl-propyl}-pyridin-2-yl)-pyrimidin-2-ylamine]: the IC50 came out at 28 nM in test [1] and 21 nM in test [2].
Taken in the same sequence, the figures for `CC(C)[C@](C)(c1ccc(-c2cnc(N)nc2)nc1)c1noc(-c2cnc(NC(C)(C)CO)cn2)n1` [Example 94, 2-[5-(3-{(R)-1-[6-(2-Amino-pyrimidin-5-yl)-pyridin-3-yl]-1,2-dimethyl-propyl}-[1,2,4]oxadiazol-5-yl)-pyrazin-2-ylamino]-2-methyl-propan-1-ol] were 74 nM and 26 nM.
Taken in the same sequence, the figures for `CC(C)[C@@](C)(c1ccc(-c2cnc(N)nc2)nc1)c1noc(-c2cnc(NC(C)(C)CO)cn2)n1` [Example 95, 2-[5-(3-{(S)-1-[6-(2-Amino-pyrimidin-5-yl)-pyridin-3-yl]-1,2-dimethyl-propyl}-[1,2,4]oxadiazol-5-yl)-pyrazin-2-ylamino]-2-methyl-propan-1-ol] were 210 nM and 92 nM.
Taken in the same sequence, the figures for `CC(C)[C@](C)(c1ccc(-c2cnc(N)nc2)nc1)c1noc(-c2cnn(C3CCS(=O)(=O)C3)c2)n1` (stereo partly drawn) [Example 96, 5-[5-((R)-1-{5-[1-(1,1-Dioxo-tetrahydro-116-thiophen-3-yl)-1H-pyrazol-4-yl]-[1,2,4]oxadiazol-3-yl}-1,2-dimethyl-propyl)-pyridin-2-yl]-pyrimidin-2-ylamine] were 240 nM and 9.9 nM.
On to `CC(C)[C@](C)(c1ccc(-c2cnc(N)nc2)nc1)c1noc(-c2cnn(CCN(C)C)c2)n1` [Example 97, 5-[5-((R)-1-{5-[1-(2-Dimethylamino-ethyl)-1H-pyrazol-4-yl]-[1,2,4]oxadiazol-3-yl}-1,2-dimethyl-propyl)-pyridin-2-yl]-pyrimidin-2-ylamine], for which the IC50 in test [1] is 30 nM; in test [2], 7.9 nM.
Taken in the same sequence, the figures for `CC(c1ccc(-c2ccc(N)nc2)nc1)(c1noc(-c2cn[nH]c2)n1)C1CC1` (centres unmarked) [Example 98, 5-{1-Cyclopropyl-1-[5-(1H-pyrazol-4-yl)-[1,2,4]oxadiazol-3-yl]-ethyl}-[2,3′]bipyridinyl-6′-ylamine] were 500 nM and 26 nM.
Taken in the same sequence, the figures for `CN(C)CCn1cc(-c2nc([C@@](C)(c3ccc(-c4cnc(N)nc4)nc3)C3CC3)no2)cn1` [Example 99, 5-[5-((R)-1-Cyclopropyl-1-{5-[1-(2-dimethylamino-ethyl)-1H-pyrazol-4-yl]-[1,2,4]oxadiazol-3-yl}-ethyl)-pyridin-2-yl]-pyrimidin-2-ylamine] were 150 nM and 32 nM.
